US6737383B1, “Herbicidal oxadiazolidines” (priority 1999, dated 2004)

Tests used:
barnyardgrass = assay: Test A barnyardgrass; assay type: in vivo, Echinochloa crus-galli; conditions: 0 to 10 scale where 0 is no effect and 10 is complete control
Protocol: Seeds of barnyardgrass (Echinochloa crus-galli), crabgrass (Digitaria spp.), morningglory (Ipomoea spp.), and velvetleaf (Abutilon theophrasti) were planted into a sandy loam soil and treated preemergence by soil drench with test chemicals formulated in a non-phytotoxic solvent mixture which includes a surfactant At the same time, these crop and weed species were also treated postemergence sprayed to runoff, with test chemicals formulated in the same manner.
Plants ranged in height from two to eighteen cm and were in the one to two leaf stage for the postemergence treatment. Treated plants and untreated controls were maintained in a greenhouse for approximately eleven days, after which all treated plants were compared to untreated controls and visually evaluated for injury. Plant response ratings, summarized in Table A, are based on a 0 to 10 scale where 0 is no effect and 10 is complete control.

Alexandergrass = assay: Test D Alexandergrass; assay type: in vivo, Brachiaria plantaginea; conditions: Preemergence, 0 to 100 scale
How it was run: (§1)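 Scoring used a 0–100 visual injury scale, with 0 meaning no effect and 100 complete control, assessed 14–21 days after application alongside untreated pots. Preemergence treatments went onto sandy loam surfaces of separately potted seeds within a day of sowing.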

bermuda-grass = assay: Test D bermudagrass; assay type: in vivo, Cynodon dactylon; conditions: Preemergence, 0 to 100 scale
How it was run: as §1

common ragweed = assay: Test D common ragweed; assay type: in vivo, Ambrosia elatior; conditions: Preemergence, 0 to 100 scale
How it was run: as §1

common groundsel = assay: Test D common groundsel; assay type: in vivo, Senecio vulgaris; conditions: Preemergence, 0 to 100 scale
How it was run: as §1

dallisgrass = assay: Test D dallisgrass; assay type: in vivo, Paspalum dilatatum; conditions: Preemergence, 0 to 100 scale
How it was run: as §1

guineagrass = assay: Test D guineagrass; assay type: in vivo, Panicum maximum; conditions: Preemergence, 0 to 100 scale
How it was run: as §1

itchgrass = assay: Test D itchgrass; assay type: in vivo, Rottboellia exaltata; conditions: Preemergence, 0 to 100 scale
How it was run: as §1

Johnson grass = assay: Test D Johnson grass; assay type: in vivo, Sorghum halepense; conditions: Preemergence, 0 to 100 scale
How it was run: as §1

large crabgrass = assay: Test D large crabgrass; assay type: in vivo, Digitaria sanguinalis; conditions: Preemergence, 0 to 100 scale
How it was run: as §1

pitted morningglory = assay: Test D pitted morningglory; assay type: in vivo, Ipomoea lacunosa; conditions: Preemergence, 0 to 100 scale
How it was run: as §1

Spanishneedles = assay: Test D Spanishneedles; assay type: in vivo, Bidens bipinnata; conditions: Preemergence, 0 to 100 scale
How it was run: as §1

surinam grass = assay: Test D surinam grass; assay type: in vivo, Brachiaria decumbens; conditions: Preemergence, 0 to 100 scale
How it was run: as §1

tall mallow = assay: Test D tall mallow; assay type: in vivo, Malva sylvestris; conditions: Preemergence, 0 to 100 scale
How it was run: as §1

Green foxtail [1] = assay: Test D green foxtail; assay type: in vivo; conditions: Preemergence, 0 to 100 scale
How it was run: as §1

Green foxtail [2] = assay: Test D green foxtail; assay type: in vivo
How it was run: as §1

[3] = Rate 250 g/ha; Preemergence; 0 to 100 scale
[4] = Rate 500 g/ha, Preemergence; 0 to 100 scale
[5] = Rate 16 g/ha, 0 no injury, 100 complete control
[6] = Rate 32 g/ha, 0 no injury, 100 complete control
[7] = Rate 64 g/ha, 0 no injury, 100 complete control
[8] = Rate 125 g/ha, 0 no injury, 100 complete control
[9] = Rate 64 g/ha, Preemergence; 0 to 100 scale, 0 no injury, 100 complete control
[10] = Rate 125 g/ha, Preemergence; 0 to 100 scale, 0 no injury, 100 complete control

## Cc1ccccc1-n1c(=O)on(C(=O)N(C2=CCOCC2)C(C)C)c1=O [Compound 10]
barnyardgrass; Postemergence, Rate 1000 g/ha
  Plant response rating, Barnyardgrass: 9
barnyardgrass; Pre-emergence, Rate 2000 g/ha
  Plant response rating, Barnyardgrass: 10

## CC(C)N(C(=O)n1oc(=O)n(C2CCCCC2C(F)(F)F)c1=O)c1ccc(F)cc1 (stereo not drawn) [Compound 99]
barnyardgrass; Postemergence, Rate 1000 g/ha
  Plant response rating, Barnyardgrass: 7
barnyardgrass; Pre-emergence, Rate 2000 g/ha
  Plant response rating, Barnyardgrass: 9

## CC(C)N(C(=O)n1oc(=O)n(C2CCCCC2)c1=O)c1ccc(F)cc1 [Compound 110]
Alexandergrass; Rate 250 g/ha
  Plant response rating, Alexandergrass: 100
Alexandergrass; Rate 500 g/ha
  Plant response rating, Alexandergrass: 100
bermuda-grass; Rate 250 g/ha
  Plant response rating, Bermudagrass: 100
bermuda-grass; Rate 500 g/ha
  Plant response rating, Bermudagrass: 100
Common ragweed; Rate 250 g/ha
  Plant response rating, C. ragweed: 0
Common ragweed; Rate 500 g/ha
  Plant response rating, C. ragweed: 0
Common groundsel; Rate 250 g/ha
  Plant response rating, Com. groundsel: 20
Common groundsel; Rate 500 g/ha
  Plant response rating, Com. groundsel: 20
dallisgrass; Rate 250 g/ha
  Plant response rating, Dallisgrass: 100
dallisgrass; Rate 500 g/ha
  Plant response rating, Dallisgrass: 100
guineagrass; Rate 250 g/ha
  Plant response rating, Guineagrass: 100
guineagrass; Rate 500 g/ha
  Plant response rating, Guineagrass: 100
itchgrass; Rate 250 g/ha
  Plant response rating, Itchgrass: 40
itchgrass; Rate 500 g/ha
  Plant response rating, Itchgrass: 40
Johnson grass; Rate 250 g/ha
  Plant response rating, Johnsongrass: 20
Johnson grass; Rate 500 g/ha
  Plant response rating, Johnsongrass: 45
Large crabgrass; Rate 250 g/ha
  Plant response rating, Large crabgrass: 100
Large crabgrass; Rate 500 g/ha
  Plant response rating, Large crabgrass: 100
Pitted morningglory; Rate 250 g/ha
  Plant response rating, P. morninglory: 0
Pitted morningglory; Rate 500 g/ha
  Plant response rating, P. morninglory: 0
Spanishneedles; Rate 500 g/ha
  Plant response rating, Spanishneedles: 0
Surinam grass; Rate 250 g/ha
  Plant response rating, Surinam grass: 70
Surinam grass; Rate 500 g/ha
  Plant response rating, Surinam grass: 85
Tall mallow; Rate 250 g/ha
  Plant response rating, Tall Mallow: 0
Tall mallow; Rate 500 g/ha
  Plant response rating, Tall Mallow: 0
Green foxtail [1]; Rate 250 g/ha
  Plant response rating, Green foxtail: 100
Green foxtail [1]; Rate 500 g/ha
  Plant response rating, Green foxtail: 100
Green foxtail [2]; [3]
  Plant response rating, Green foxtail: 100
Green foxtail [2]; [4]
  Plant response rating, Green foxtail: 100

## CCN(CC)C(=O)n1oc(=O)n(-c2ccc(OC)cc2)c1=O [Compound 1]
barnyardgrass; Postemergence, Rate 1000 g/ha
  Plant response rating, Barnyardgrass: 8
barnyardgrass; Pre-emergence, Rate 2000 g/ha
  Plant response rating, Barnyardgrass: 9

## CC(C)Oc1cc(-n2c(=O)on(C(=O)N(c3ccc(F)cc3)C(C)C)c2=O)c(Cl)cc1Cl [Compound 43]
barnyardgrass; Postemergence, Rate 1000 g/ha
  Plant response rating, Barnyardgrass: 0
barnyardgrass; Pre-emergence, Rate 2000 g/ha
  Plant response rating, Barnyardgrass: 0

## CCn1c(=O)on(C(=O)N(c2ccc(Cl)cc2)C(C)C)c1=O [Compound 108]
Alexandergrass; [5]
  Plant response rating, Alexandergrass: 20
Alexandergrass; [6]
  Plant response rating, Alexandergrass: 20
Alexandergrass; [7]
  Plant response rating, Alexandergrass: 85
Alexandergrass; [8]
  Plant response rating, Alexandergrass: 98
Alexandergrass; Rate 250 g/ha
  Plant response rating, Alexandergrass: 100
Alexandergrass; Rate 500 g/ha
  Plant response rating, Alexandergrass: 100
bermuda-grass; [5]
  Plant response rating, Bermudagrass: 85
bermuda-grass; [6]
  Plant response rating, Bermudagrass: 98
bermuda-grass; [7]
  Plant response rating, Bermudagrass: 100
bermuda-grass; [8]
  Plant response rating, Bermudagrass: 100
bermuda-grass; Rate 250 g/ha
  Plant response rating, Bermudagrass: 100
bermuda-grass; Rate 500 g/ha
  Plant response rating, Bermudagrass: 100
Common ragweed; [5]
  Plant response rating, C. ragweed: 0
Common ragweed; [6]
  Plant response rating, C. ragweed: 0
Common ragweed; [7]
  Plant response rating, C. ragweed: 0
Common ragweed; [8]
  Plant response rating, C. ragweed: 0
Common ragweed; Rate 250 g/ha
  Plant response rating, C. ragweed: 0
Common ragweed; Rate 500 g/ha
  Plant response rating, C. ragweed: 80
Common groundsel; [5]
  Plant response rating, Com. groundsel: 65
Common groundsel; [6]
  Plant response rating, Com. groundsel: 75
Common groundsel; [7]
  Plant response rating, Com. groundsel: 85
Common groundsel; [8]
  Plant response rating, Com. groundsel: 100
Common groundsel; Rate 250 g/ha
  Plant response rating, Com. groundsel: 100
Common groundsel; Rate 500 g/ha
  Plant response rating, Com. groundsel: 100
dallisgrass; [5]
  Plant response rating, Dallisgrass: 40
dallisgrass; [6]
  Plant response rating, Dallisgrass: 50
dallisgrass; [7]
  Plant response rating, Dallisgrass: 100
dallisgrass; [8]
  Plant response rating, Dallisgrass: 100
dallisgrass; Rate 250 g/ha
  Plant response rating, Dallisgrass: 100
dallisgrass; Rate 500 g/ha
  Plant response rating, Dallisgrass: 100
guineagrass; [5]
  Plant response rating, Guineagrass: 0
guineagrass; [6]
  Plant response rating, Guineagrass: 85
guineagrass; [7]
  Plant response rating, Guineagrass: 98
guineagrass; [8]
  Plant response rating, Guineagrass: 98
guineagrass; Rate 250 g/ha
  Plant response rating, Guineagrass: 100
guineagrass; Rate 500 g/ha
  Plant response rating, Guineagrass: 100
itchgrass; [5]
  Plant response rating, Itchgrass: 0
itchgrass; [6]
  Plant response rating, Itchgrass: 20
itchgrass; [7]
  Plant response rating, Itchgrass: 30
itchgrass; [8]
  Plant response rating, Itchgrass: 40
itchgrass; Rate 250 g/ha
  Plant response rating, Itchgrass: 98
itchgrass; Rate 500 g/ha
  Plant response rating, Itchgrass: 100
Johnson grass; [5]
  Plant response rating, Johnsongrass: 0
Johnson grass; [6]
  Plant response rating, Johnsongrass: 20
Johnson grass; [7]
  Plant response rating, Johnsongrass: 20
Johnson grass; [8]
  Plant response rating, Johnsongrass: 40
Johnson grass; Rate 250 g/ha
  Plant response rating, Johnsongrass: 85
Johnson grass; Rate 500 g/ha
  Plant response rating, Johnsongrass: 85
Large crabgrass; [5]
  Plant response rating, Large crabgrass: 85
Large crabgrass; [6]
  Plant response rating, Large crabgrass: 100
Large crabgrass; [7]
  Plant response rating, Large crabgrass: 100
Large crabgrass; [8]
  Plant response rating, Large crabgrass: 100
Large crabgrass; Rate 250 g/ha
  Plant response rating, Large crabgrass: 100
Large crabgrass; Rate 500 g/ha
  Plant response rating, Large crabgrass: 100
Pitted morningglory; [5]
  Plant response rating, P. morninglory: 0
Pitted morningglory; [6]
  Plant response rating, P. morninglory: 0
Pitted morningglory; [7]
  Plant response rating, P. morninglory: 0
Pitted morningglory; [8]
  Plant response rating, P. morninglory: 0
Pitted morningglory; Rate 250 g/ha
  Plant response rating, P. morninglory: 0
Pitted morningglory; Rate 500 g/ha
  Plant response rating, P. morninglory: 0
Spanishneedles; [5]
  Plant response rating, Spanishneedles: 0
Spanishneedles; [6]
  Plant response rating, Spanishneedles: 0
Spanishneedles; [7]
  Spanishneedles plant response rating: 0
Spanishneedles; [8]
  Spanishneedles plant response rating: 0
Spanishneedles; Rate 500 g/ha
  Plant response rating, Spanishneedles: 20
Surinam grass; [5]
  Plant response rating, Surinam grass: 0
Surinam grass; [6]
  Plant response rating, Surinam grass: 65
Surinam grass; [7]
  Surinam grass plant response rating: 65
Surinam grass; [8]
  Surinam grass plant response rating: 98
Surinam grass; Rate 250 g/ha
  Plant response rating, Surinam grass: 98
Surinam grass; Rate 500 g/ha
  Plant response rating, Surinam grass: 100
Tall mallow; [5]
  Plant response rating, Tall Mallow: 0
Tall mallow; [6]
  Plant response rating, Tall Mallow: 0
Tall mallow; [7]
  Tall Mallow plant response rating: 0
Tall mallow; [8]
  Tall Mallow plant response rating: 10
Tall mallow; Rate 250 g/ha
  Plant response rating, Tall Mallow: 45
Tall mallow; Rate 500 g/ha
  Plant response rating, Tall Mallow: 98
Green foxtail [1]; Rate 250 g/ha
  Plant response rating, Green foxtail: 100
Green foxtail [1]; Rate 500 g/ha
  Plant response rating, Green foxtail: 100
Green foxtail [2]; Preemergence; Rate 16 g/ha; 0 to 100 scale, 0 no injury, 100 complete control
  Plant response rating, Green foxtail: 40
Green foxtail [2]; Preemergence; Rate 32 g/ha; 0 to 100 scale, 0 no injury, 100 complete control
  Plant response rating, Green foxtail: 100
Green foxtail [2]; Rate 16 g/ha; Preemergence; 0 to 100 scale, 0 no injury, 100 complete control
  Plant response rating, Green foxtail: 40
Green foxtail [2]; Rate 32 g/ha; Preemergence; 0 to 100 scale, 0 no injury, 100 complete control
  Plant response rating, Green foxtail: 100
Green foxtail [2]; [9]
  Green foxtail plant response rating: 100
  Plant response rating, Green foxtail: 100
Green foxtail [2]; [10]
  Green foxtail plant response rating: 100
  Plant response rating, Green foxtail: 100
Green foxtail [2]; [3]
  Plant response rating, Green foxtail: 100
Green foxtail [2]; [4]
  Plant response rating, Green foxtail: 100
